Consider one compound from US11033549B2, “Use of heterocyclic compounds in the treatment of pigmented skin” (ATIR Holding S.A., priority 2017, dated 2021).

This assay relates to skin. Put plainly: Effect of topical application of R-55 on skin of female volunteers. The assay is classed as in vivo, human. As to conditions: two middle-aged Caucasian female volunteers, daily topical application, after about one month. How it is done: A formulation for topical administration of R-55 (2-((4-(3-hydroxyphenyl)piperazin-1-yl)methyl)quinazolin-4-one) was prepared, comprising 10 mg/ml R-55.
A lipid-based phase was formed which consisted primarily of propylene glycol (a solvent of R-55 and penetration enhancer), along with Gelucire® 44/14 lauroyl macrogolglycerides (a solubilizer of R-55), Gelucire® 50/13 stearoyl macrogolglycerides (a sustained release agent), phosphatidyl choline (a surfactant), Labrasol® caprylocaproyl macrogolglycerides (a co-surfactant and penetration enhancer), Lauroglycol™ 90 (a solubilizer of R-55, co-surfactant and penetration enhancer), and vitamin E TPGS (a stabilizer). The ingredients were mixed by stirring at a temperature in a range of from 40° C. to 60° C. until the phosphatidyl choline and R-55 were completely dissolved, as indicated by obtaining a clear solution.
An aqueous solution of a carbomer (Carbopol® Ultrez 10) was added to the lipid-based phase with R-55 to obtain 100 grams of a suspension, which was stirred continuously at room temperature. A gel-like water-in-oil emulsion was formed, with relatively round aqueous droplets dispersed in a lipophilic phase, and the emulsion was stable for at least 2 weeks at room temperature. […]

For `O=c1nc(CN2CCN(c3cccc(O)c3)CC2)[nH]c2ccccc12` [R-55, 2-((4-(3-hydroxyphenyl)piperazin-1-yl)methyl)quinazolin-4-one], for the setting “10 mg/ml R-55, face and behind the ear”, the skin pigmentation result is on record as “noticeably less pigmented”. Besides, where the note is “10 mg/ml R-55”, the skin appearance result is on record as “overall fresher, younger appearance”.
